# Reference: US20040044037A1, “Amidino-urea serotonin receptor ligands and compositions, their pharmaceutical uses, and methods for their snythesis” (priority 2003, published 2004)
# How the values were obtained:
# human 5HT2a receptors = target: T1, human 5HT2a receptors (Homo sapiens, UniProt P28223); assay: Competition radioligand binding, 5-HT2A; details: [3H]Ketanserin; membranes of CHO K1 cells; read-out: Ki 5-HT2A
# T1 construct: expressed in transfected cells; host or cells: CHO K1 cells
# T1 sequence (P28223 whole entry): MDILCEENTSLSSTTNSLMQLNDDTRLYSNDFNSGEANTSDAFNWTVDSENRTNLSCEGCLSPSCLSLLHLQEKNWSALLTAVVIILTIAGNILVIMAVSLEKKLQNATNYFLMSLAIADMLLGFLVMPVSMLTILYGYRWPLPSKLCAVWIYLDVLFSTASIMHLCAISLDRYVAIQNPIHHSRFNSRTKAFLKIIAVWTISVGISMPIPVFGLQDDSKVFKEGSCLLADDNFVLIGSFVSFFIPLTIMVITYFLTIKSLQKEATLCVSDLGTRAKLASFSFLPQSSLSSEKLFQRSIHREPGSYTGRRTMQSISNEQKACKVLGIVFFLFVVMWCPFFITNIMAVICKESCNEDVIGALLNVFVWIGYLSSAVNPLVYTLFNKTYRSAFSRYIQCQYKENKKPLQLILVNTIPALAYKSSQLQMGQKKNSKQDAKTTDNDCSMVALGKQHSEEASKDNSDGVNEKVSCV
# Description: (§1) Cells and Membrane Preparation: HEK 293 cells stably expressing human 5-HT7B (h5-HT7b) receptors were grown in Dulbecco's Modified Eagle's Medium (DMEM; Gibco) without sodium pyruvate and containing 4.5 g/L glucose, L-glutamine/penicillin-streptomycin (Gemini), 10% fetal bovine serum and 250 mg/l of the antibiotic, G418 (Geneticin) as previously described (Jasper, J. R., Kosaka, A., To, Z. P., Chang, D. J. and Eglen, R. M. (1997) Cloning, expression and pharmacology of a truncated splice variant of the human 5-ht7 receptor (h5-ht7b). Br. J. Pharmacol. 122(1):126-132.). Cell pellets were homogenized in approximately 50 mL of homogenization buffer (buffer A) containing: 50 mM Tris (pH 7.4), 2 mM EGTA, 0.32 M sucrose, 10 μM PMSF, 1 μg/mL leupeptin, 5 μg/mL Pepstatin A, and 5 μg/mL aprotinin using an UltraTurax homogenizer (Tekmar Company, Cincinnati, Ohio) at 80% maximum setting three times for 10 sec. Cell pellets were centrifuged at 4° C. at 1,500×g for 10 min in a Beckman GS-6R centrifuge. Pellets were resuspended in buffer A, homogenized and centrifuged as described above. Pooled supernatants were transferred to centrifuge bottles and centrifuged at 4° C. at 20,000×g for 30 min in a Beckman J2-HS centrifuge. Cell pellets were resuspended in buffer A and were centrifuged at 4° C. at 20,000×g for 30 min. Cell pellets were resuspended in buffer A and stored at −70° C. in aliquots of 2.5 mg/mL total membrane protein. Total membrane protein was assessed utilizing a BCA kit (Pierce; Rockford, Ill.). Membranes containing human 5-HT1a or 5HT2a receptors expressed in CHO K1 cells were prepared as described above.
# (§2) Radioligand Binding Assays: For 5-HT7 saturation binding experiments, HEK-293 cell membranes expressing h5-HT7 receptors (5-10 μg membrane protein/well) were incubated in duplicate with [^3H]5-CT (approximately 0.2 nM) in binding assay buffer containing: 50 mM HEPES (pH 7.4), 0.5 mM EDTA, 10 mM MgCl2, 10 μM pargyline to inhibit monoamine oxidase activity, and 0.1% sodium ascorbate, in a final volume of 200 μL in 96-well polypropylene plates for 2 hours at 37° C. Nonspecific binding was determined by incubating membranes with 1 μM 5-HT. All radioligand binding assays were stopped by rapid filtration onto 96-well GF/C filter plates (Packard) soaked in 0.1% polyethylenimine. Filters were washed three times with ice-cold phosphate-buffered saline (PBS) wash buffer containing 50 mM NaPO4 (pH 7.4), 0.9% NaCl, 2 mM MgCl2 and 0.02% NaN3. The filters were then counted using liquid scintillation in a Packard Topcount scintillation counter.
# (§3) Data Analysis: Radioligand binding experiments were analyzed with Prism™ (Graphpad, San Diego, Calif.), a computer graphics and statistics program. IC50 values and Hill slopes for compounds were generated by nonlinear regression using Prism™. Values for Ki calculated from IC50 values by the Cheng and Prussoff equation (Cheng, Y. and Prusoff, W. H., (1973), “Relationship between the inhibition constant (Ki) and the concentration of inhibitor which causes 50 per cent inhibition (I50) of an enzymatic reaction.” Biochemical Pharmacol. 22:3099-3108).
# [1] = target: T2, human 5-HT7B (h5-HT7b) receptors (Homo sapiens, UniProt P34969); assay: Competition radioligand binding, h5-HT7b; details: [3H]5-CT; membranes of HEK 293 cells; read-out: Ki 5-HT7
# T2 construct: expressed in transfected cells
# T2 sequence (P34969 1-432 limits assumed): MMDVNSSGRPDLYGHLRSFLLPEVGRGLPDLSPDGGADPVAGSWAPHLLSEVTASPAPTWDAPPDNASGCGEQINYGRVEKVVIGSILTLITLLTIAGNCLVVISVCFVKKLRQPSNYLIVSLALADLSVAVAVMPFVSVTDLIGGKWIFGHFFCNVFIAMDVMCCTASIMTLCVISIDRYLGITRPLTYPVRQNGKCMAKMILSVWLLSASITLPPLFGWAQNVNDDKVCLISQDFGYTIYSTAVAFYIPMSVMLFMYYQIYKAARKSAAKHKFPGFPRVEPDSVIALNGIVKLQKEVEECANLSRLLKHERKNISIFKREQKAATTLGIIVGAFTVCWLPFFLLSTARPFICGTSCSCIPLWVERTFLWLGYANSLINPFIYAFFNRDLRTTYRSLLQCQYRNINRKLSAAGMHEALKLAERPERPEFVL
# Procedure, shortened: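 Membranes from HEK 293 cells stably expressing human 5-HT7b incubated with ~0.2 nM [3H]5-CT and varying compound 2 h at 37 °C in HEPES buffer pH 7.4 with pargyline. Nonspecific binding with 1 μM 5-HT; filtration, scintillation counting; IC50 by nonlinear regression converted to Ki via Cheng–Prusoff.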
# human 5-HT1a receptors = target: T3, human 5-HT1a receptors (Homo sapiens, UniProt P08908); assay: Competition radioligand binding, h5-HT1a; details: [3H]5-CT; membranes of CHO K1 cells; read-out: Ki 5-HT1A
# T3 construct: expressed in transfected cells; host or cells: CHO K1 cells
# T3 sequence (P08908 1-422): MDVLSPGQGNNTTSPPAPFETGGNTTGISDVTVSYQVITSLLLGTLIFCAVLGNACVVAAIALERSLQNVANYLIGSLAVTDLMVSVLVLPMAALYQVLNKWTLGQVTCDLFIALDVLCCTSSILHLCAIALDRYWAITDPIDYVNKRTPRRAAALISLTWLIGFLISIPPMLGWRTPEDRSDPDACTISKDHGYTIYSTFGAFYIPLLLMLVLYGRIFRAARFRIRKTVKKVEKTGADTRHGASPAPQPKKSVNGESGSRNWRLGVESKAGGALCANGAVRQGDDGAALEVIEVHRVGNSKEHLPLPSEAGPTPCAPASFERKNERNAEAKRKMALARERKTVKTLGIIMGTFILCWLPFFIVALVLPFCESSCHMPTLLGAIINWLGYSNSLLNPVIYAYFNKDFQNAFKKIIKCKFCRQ
# Description: as §1, §2, §3
# [2] = target: T4, human 5-HT6 (h5-HT6) receptors (Homo sapiens, UniProt P50406); assay: Competition radioligand binding, h5-HT6; details: [3H]LSD; membranes of HEK-293 cells; read-out: Ki 5-HT6
# T4 construct: purchased Receptor Biology, Inc. (Beltsville, Md.); host or cells: HEK-293 cells
# T4 sequence (P50406 whole entry): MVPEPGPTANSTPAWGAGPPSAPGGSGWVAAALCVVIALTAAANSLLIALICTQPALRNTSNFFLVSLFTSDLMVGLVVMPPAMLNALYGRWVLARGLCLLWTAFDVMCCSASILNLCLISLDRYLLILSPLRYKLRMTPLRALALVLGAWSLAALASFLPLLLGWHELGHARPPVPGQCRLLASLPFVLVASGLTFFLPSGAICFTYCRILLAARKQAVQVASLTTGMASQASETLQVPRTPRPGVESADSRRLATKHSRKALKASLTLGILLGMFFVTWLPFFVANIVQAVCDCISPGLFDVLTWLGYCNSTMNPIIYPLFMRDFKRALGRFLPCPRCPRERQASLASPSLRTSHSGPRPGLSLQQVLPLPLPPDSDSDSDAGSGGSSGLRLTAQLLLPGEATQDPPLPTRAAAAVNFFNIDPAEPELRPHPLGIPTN
# [3] = target: T5, human D2S dopamine (hD2S-DA) receptors (Homo sapiens, UniProt P14416); assay: Competition radioligand binding, hD2S dopamine; details: [3H]Spiperone; membranes of A9 L cells; read-out: Ki D2
# T5 construct: purchased Receptor Biology, Inc. (Beltsville, Md.); host or cells: A9 L cells
# T5 sequence (P14416 1-414 isoform P14416-2): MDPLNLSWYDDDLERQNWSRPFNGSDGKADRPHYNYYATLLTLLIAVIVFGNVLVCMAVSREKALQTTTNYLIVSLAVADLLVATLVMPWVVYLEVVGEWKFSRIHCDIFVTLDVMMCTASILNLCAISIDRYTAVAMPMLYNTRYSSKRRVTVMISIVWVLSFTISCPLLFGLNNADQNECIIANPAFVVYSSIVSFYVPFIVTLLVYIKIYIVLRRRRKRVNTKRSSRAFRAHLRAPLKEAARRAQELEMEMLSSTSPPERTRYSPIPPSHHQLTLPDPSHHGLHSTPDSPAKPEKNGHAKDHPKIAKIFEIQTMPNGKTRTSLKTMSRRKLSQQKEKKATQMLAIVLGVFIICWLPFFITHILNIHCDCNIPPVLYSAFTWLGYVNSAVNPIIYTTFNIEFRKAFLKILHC
compound,measurement,setting,value
"N=C(NCc1cccc2ccccc12)NC(=O)NC[C@@H]1CCCC[C@H]1O [Example 46, 1-({[{[({[(1S,2R)-2-Hydroxycyclohexyl]methyl}amino)carbonyl]amino}(imino)methyl]amino}methyl)naphthalene]",Ki,human 5HT2a receptors,0.0006 µM
same,Ki,[1],0.0098 µM
same,Ki,human 5-HT1a receptors,0.049 µM
same,Ki,[2],0.5 µM
same,Ki,[3],0.41 µM
"N=C(NCc1cccc2ccccc12)NC(=O)NCC1(O)CCCCC1 [Example 50, 1-({[[({[(1-Hydroxycyclohexyl)methyl]amino}carbonyl)amino](imino)methyl]amino}methyl)naphthalene]",Ki,human 5HT2a receptors,0.00025 µM
same,Ki,[1],0.026 µM
same,Ki,human 5-HT1a receptors,0.047 µM
same,Ki,[2],0.62 µM
same,Ki,[3],1.07 µM
"CCOC(=O)N1CCN(C(=O)NC(=N)NCc2cccc3ccccc23)CC1 [Example 51, Ethyl 4-[({imino[(1-naphthylmethyl)amino]methyl}amino)carbonyl]-1-piperazine carboxylate]",Ki,human 5HT2a receptors,0.018 µM
same,Ki,[1],0.015 µM
same,Ki,human 5-HT1a receptors,> 4 µM
same,Ki,[2],> 10 µM
same,Ki,[3],> 2.5 µM
"COc1cccc(CCNC(=O)NC(=N)NCc2cccc3ccccc23)c1OC [Example 53, 1-({[({[(2,3-Dimethoxyphenethyl)amino]carbonyl}amino)(imino)methyl]amino}methyl)naphthalene]",Ki,human 5HT2a receptors,0.0008 µM
same,Ki,[1],0.062 µM
same,Ki,human 5-HT1a receptors,0.17 µM
same,Ki,[2],1.87 µM
same,Ki,[3],0.29 µM
"CNC(=O)NC(=N)NCc1cccc2ccccc12 [Example 54, 1-{[(1-Imino{[(methylamino)carbonyl]amino}methyl)amino]methyl}naphthalene]",Ki,human 5HT2a receptors,0.0096 µM
same,Ki,[1],0.013 µM
same,Ki,human 5-HT1a receptors,2.45 µM
same,Ki,[2],2.45 µM
same,Ki,[3],> 2.5 µM
"C[C@@H](O)CNC(=O)NC(=N)NCc1cccc2ccccc12 [Example 55, 1-({[[({[(2R)-2-Hydroxypropyl]amino}carbonyl)amino](imino)methyl]amino}methyl)naphthalene]",Ki,human 5HT2a receptors,0.0015 µM
same,Ki,[1],0.01 µM
same,Ki,human 5-HT1a receptors,1.72 µM
same,Ki,[2],2.32 µM
same,Ki,[3],> 2.5 µM
"CN(C)C(=O)NC(=N)NCc1cccc2ccccc12 [Example 56, 1-({[{[(Dimethylamino)carbonyl]amino}(imino)methyl]amino}methyl)naphthalene]",Ki,human 5HT2a receptors,0.017 µM
same,Ki,[1],0.094 µM
same,Ki,human 5-HT1a receptors,0.7 µM
same,Ki,[2],> 10 µM
same,Ki,[3],> 2.5 µM
"COc1cccc(CN2CCC(CNC(=O)NC(=N)NCc3cccc4ccccc34)CC2)c1 [Example 58, 4-({[({Imino[(1-naphthylmethyl)amino]methyl}amino)carbonyl]amino}methyl)-1-(3-methoxybenzyl)piperidine]",Ki,human 5HT2a receptors,0.0081 µM
same,Ki,[1],0.023 µM
same,Ki,human 5-HT1a receptors,0.42 µM
same,Ki,[2],1.37 µM
same,Ki,[3],1.57 µM
"N=C(NCc1cccc2ccccc12)NC(=O)NCC1CCN(Cc2ccc([N+](=O)[O-])cc2)CC1 [Example 60, 4-({[({Imino[(1-naphthylmethyl)amino]methyl}amino)carbonyl]amino}methyl)-1-(4-nitrobenzyl)piperidine]",Ki,human 5HT2a receptors,0.016 µM
same,Ki,[1],0.051 µM
same,Ki,human 5-HT1a receptors,0.068 µM
same,Ki,[2],3.47 µM
same,Ki,[3],1.87 µM
"COc1ccc(C(C)=O)cc1CN1CCC(CNC(=O)NC(=N)NCc2cccc3ccccc23)CC1 [Example 63, 1-(5-Acetyl-2-methoxybenzyl)4({[({imino[(1-naphthylmethyl)amino]methyl}amino)carbonyl]amino}methyl)piperidine]",Ki,human 5HT2a receptors,0.0018 µM
same,Ki,[1],0.039 µM
same,Ki,human 5-HT1a receptors,0.34 µM
same,Ki,[2],3.03 µM
same,Ki,[3],1.78 µM
"Cc1ccccc1CN1CCC(CNC(=O)NC(=N)NCc2cccc3ccccc23)CC1 [Example 65, 4-({[({Imino[(1-naphthylmethyl)amino]methyl}amino)carbonyl]amino}methyl)-1-(2-methylbenzyl)piperidine]",Ki,human 5HT2a receptors,0.0095 µM
same,Ki,[1],0.029 µM
same,Ki,human 5-HT1a receptors,0.69 µM
same,Ki,[2],4.18 µM
same,Ki,[3],2.49 µM
"N=C(NCc1cccc2ccccc12)NC(=O)NCC1CCN(Cc2ccc3c(c2)OCO3)CC1 [Example 66, 1-(1,3-Benzodioxol-5-ylmethyl)-4-({[({imino[(1-naphthylmethyl)amino]methyl}amino)carbonyl]amino}methyl)piperidine]",Ki,human 5HT2a receptors,0.0042 µM
same,Ki,[1],0.031 µM
same,Ki,human 5-HT1a receptors,0.43 µM
same,Ki,[2],3.7 µM
same,Ki,[3],1.58 µM
N=C(NCc1cccc2ccccc12)NC(=O)NCC1CCN(Cc2ccc(F)cc2F)CC1 [Example 67],Ki,human 5HT2a receptors,0.0064 µM
same,Ki,[1],0.032 µM
same,Ki,human 5-HT1a receptors,0.5 µM
same,Ki,[2],2.86 µM
same,Ki,[3],> 2.5 µM
"COc1ccc(CN2CCC(CNC(=O)NC(=N)NCc3cccc4ccccc34)CC2)cc1C [Example 68, 4-({[({Imino[(1-naphthylmethyl)amino]methyl}amino)carbonyl]amino}methyl)-1-(4-methoxy-3-methylbenzyl)piperidine]",Ki,human 5HT2a receptors,0.01 µM
same,Ki,[1],0.018 µM
same,Ki,human 5-HT1a receptors,1.68 µM
same,Ki,[2],0.91 µM
same,Ki,[3],1.54 µM
"CC(=O)Nc1ccc(CN2CCC(CNC(=O)NC(=N)NCc3cccc4ccccc34)CC2)cc1 [Example 70, N-(4-{[4-({[({Imino[(1-naphthylmethyl)amino]methyl}amino)carbonyl]amino}methyl)-1-piperidinyl]methyl}phenyl)acetamide]",Ki,human 5HT2a receptors,0.00055 µM
same,Ki,[1],0.016 µM
same,Ki,human 5-HT1a receptors,0.11 µM
same,Ki,[2],2.43 µM
same,Ki,[3],2.45 µM
"COc1ccc(CN2CCC(CNC(=O)NC(=N)NCc3cccc4ccccc34)CC2)cc1 [Example 71, 4-({[({Imino[(1-naphthylmethyl)amino]methyl}amino)carbonyl]amino}methyl)-1-(4-methoxybenzyl)piperidine]",Ki,human 5HT2a receptors,0.0013 µM
same,Ki,[1],0.019 µM
same,Ki,human 5-HT1a receptors,0.6 µM
same,Ki,[2],1.37 µM
same,Ki,[3],1.47 µM
"Cc1cccc(CN2CCC(CNC(=O)NC(=N)NCc3cccc4ccccc34)CC2)c1 [Example 72, 4-({[({Imino[(1-naphthylmethyl)amino]methyl}amino)carbonyl]amino}methyl)-1-(3-methylbenzyl)piperidine]",Ki,human 5HT2a receptors,0.0053 µM
same,Ki,[1],0.015 µM
same,Ki,human 5-HT1a receptors,0.42 µM
same,Ki,[2],0.88 µM
same,Ki,[3],0.88 µM
